Measurements taken from article PMC12074917, “Molecular pharmacokinetic mechanism of JBP485 against aristolochic acid I (AAI) -induced nephrotoxicity” (Frontiers in Pharmacology, 2025).

How the values were obtained:
[1] = In vivo renal clearance / pharmacokinetics of AAI after intravenous administration with or without JBP485; design: species or system rat; details: rats, i.v.
Method: Rats were randomly assigned to an AAI (4 mg/kg) group or an AAI (4 mg/kg) + JBP485 (50 mg/kg) group (n = 5 per group). The drugs were diluted in normal saline and administered intravenously via the left jugular vein. Subsequently, blood samples (0.2 mL) were collected via the right jugular vein with heparinized syringes at 1, 3, 5, 10, 30, 60, 120, 240, 360, and 480 min post-treatment. Isotonic saline solution (0.2 mL) was injected after each blood sample collection. Urine was collected directly from the bladder at 2, 4, 6, and 8 h after drug administration. AAI concentrations were measured by LC–MS/MS. Pharmacokinetic parameters, renal clearance (CLR), and cumulative urinary excretion were calculated.
(§1) The concentrations of the test compounds in plasma, urine, and cell lysates were determined using an Agilent HP1200 liquid chromatography system (Agilent Technology Inc., SC, CA, United States) and an API 3200 triple-quadrupole mass spectrometer (Applied Biosystems, SC, CA, United States). After protein precipitation using acetonitrile, the analyte was separated on a Hypersil BDS C18 column. The mobile phase consisted of acetonitrile and water containing 0.1% (v/v) formic acid (80:20, v/v). The flow rate was 0.4 mL/min. The mass spectrometer was equipped with an electrospray ionization (ESI) source. Data were acquired in positive ion mode and dynamic multiple reaction monitoring (MRM) mode. The ESI source conditions were as follows: ion spray voltage, 5.5 kV; ion source temperature, 600°C; Gas source 1 (GS1, N2) pressure, 50 psi; Gas source 2 (GS2, N2) pressure, 60 psi; curtain gas (CUR) pressure, 12 psi; and collision gas (CAD) pressure, 10 psi. EP and CXP were set at […] for all analytes. The scan range was m/z 359.9→298.1 for AAI and m/z 130.0→71.2 for IS (Internal Standard, metformin). […] Intra- and inter-day precision was lower than 4.5% with reference to relative standard deviation, while accuracy was within ±6.5% in terms of relative error for analytes. Analyst software (version 1.4.1) was used for equipment control and data acquisition and analysis.

hOAT1 = target: T1, hOAT1 (Homo sapiens, UniProt Q4U2R8); assay: Uptake of AAI by hOAT1-transfected HEK293 cells with or without JBP485; type: cell-based
T1 construct: expressed in transfected cells; host or cells: HEK293
T1 sequence (Q4U2R8 1-563): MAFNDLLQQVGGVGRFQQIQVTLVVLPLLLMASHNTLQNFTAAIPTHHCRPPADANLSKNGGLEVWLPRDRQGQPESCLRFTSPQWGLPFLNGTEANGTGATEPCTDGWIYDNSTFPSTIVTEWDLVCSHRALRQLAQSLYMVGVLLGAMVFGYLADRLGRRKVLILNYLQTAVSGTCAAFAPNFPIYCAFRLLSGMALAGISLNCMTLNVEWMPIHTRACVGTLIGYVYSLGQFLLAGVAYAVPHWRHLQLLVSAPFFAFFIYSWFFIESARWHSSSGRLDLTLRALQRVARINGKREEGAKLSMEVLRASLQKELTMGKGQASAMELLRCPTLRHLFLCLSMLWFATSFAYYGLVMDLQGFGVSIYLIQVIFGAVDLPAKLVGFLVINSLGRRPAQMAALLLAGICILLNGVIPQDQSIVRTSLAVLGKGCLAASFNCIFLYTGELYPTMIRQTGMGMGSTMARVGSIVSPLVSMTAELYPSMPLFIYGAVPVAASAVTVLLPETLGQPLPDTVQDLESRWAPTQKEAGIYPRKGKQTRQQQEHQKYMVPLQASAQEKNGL
Method: (§2) Uptake experiments with hOAT1/3-HEK293 cells were performed as previously described ([Zhu et al., 2020]). Uptake was initiated by adding transport buffer (1 mL) with AAI (1 μM) and/or JBP485 (500 μM) after the cells were washed twice and incubated with transport buffer at 37°C. Moreover, the concentration-dependent uptake of AAI and the effects of JBP485 on AAI uptake were examined. Uptake was terminated upon the removal of the medium. The cells were washed three times with 1 mL of ice-cold Hanks’ balanced salt solution, lysed with 0.3 mL of 0.1% (v/v) Triton X-100, and then transferred to a polythene tube for quantification by LC-MS/MS. The protein level was measured using the BCA method (Solarbio, Beijing, China) with bovine serum albumin serving as the standard.
as §1

hOAT3 = target: T2, hOAT3 (Homo sapiens, UniProt Q8TCC7); assay: Uptake of AAI by hOAT3-transfected HEK293 cells with or without JBP485; type: cell-based
T2 construct: expressed in transfected cells; host or cells: HEK293
T2 sequence (Q8TCC7 1-542): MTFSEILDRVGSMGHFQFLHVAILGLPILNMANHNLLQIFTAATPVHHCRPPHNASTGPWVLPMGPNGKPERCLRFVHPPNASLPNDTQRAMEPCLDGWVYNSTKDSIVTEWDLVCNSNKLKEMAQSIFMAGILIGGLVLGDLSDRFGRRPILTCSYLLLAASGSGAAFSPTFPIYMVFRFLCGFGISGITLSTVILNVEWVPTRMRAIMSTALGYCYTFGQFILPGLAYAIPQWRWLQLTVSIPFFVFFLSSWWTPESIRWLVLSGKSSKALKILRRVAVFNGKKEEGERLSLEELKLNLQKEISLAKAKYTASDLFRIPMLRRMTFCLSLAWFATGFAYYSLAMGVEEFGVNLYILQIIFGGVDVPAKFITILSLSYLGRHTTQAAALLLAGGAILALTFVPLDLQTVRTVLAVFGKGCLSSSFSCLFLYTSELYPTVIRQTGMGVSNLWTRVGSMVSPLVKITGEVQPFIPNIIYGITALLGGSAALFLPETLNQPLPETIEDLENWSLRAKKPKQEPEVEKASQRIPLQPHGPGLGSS
Method: as §2, §1

NRK-52E cells = assay: CCK-8 cell viability assay; type: cell-based, rat
Method: AAI was prepared to make a series of working dilutions in serum-free DMEM. The NRK-52E cells were plated in 96-well plates at a density of 5 ×10^4 cells/mL for 24 h at 37 °C and then challenged with various concentrations of AAI (0, 1, 2, 4, 8, 16, 32, 64, 128 and 256 μM). Cell viability was assessed using the CCK-8 assay.
NRK-52E cells were seeded in 96-well plates at a density of 5 × 10^4 cells/mL and incubated for 24 h at 37 °C. Following pretreatment with various concentrations of JBP485 (7.8125, 15.625, 31.25, 62.5, 125, and 250 μM) for 2.5 h, the cells were challenged with AAI (11 μM) for 24 h. Cell viability was subsequently assayed using a CCK-8 kit.

[2] = AAI 4 mg/kg with or without JBP485 50 mg/kg, n = 5

SMILES | cumulative urinary excretion of AAI over 8 h ([1]; co-treatment with JBP485 50 mg/kg vs AAI 4 mg/kg alone) | AAI plasma concentrations ([1]; concurrent JBP485 50 mg/kg vs AAI 4 mg/kg alone) | type of inhibition of AAI uptake (hOAT1; hOAT1-HEK293 cells, Km increased, Vmax unchanged) | IC50 (hOAT1; hOAT1-transfected HEK293 cells, substrate AAI, read-out: IC50 of inhibition of AAI uptake, OAT1) [µM] | type of inhibition of AAI uptake (hOAT3; hOAT3-HEK293 cells, Km increased, Vmax unchanged) | IC50 (hOAT3; hOAT3-transfected HEK293 cells, substrate AAI, read-out: IC50 of inhibition of AAI uptake, OAT3) [µM] | survival rates of NRK-52E cells challenged with AAI (NRK-52E cells; JBP485 7.8125-250 μM pretreatment 2.5 h, AAI 11 μM 24 h) | toxicity against NRK-52E cells (NRK-52E cells; JBP485 alone, concentrations up to 256 μM) | AUC0-∞ of AAI [1, 2] [µg·min/L] | AUC(0-t) of AAI [1, 2] [µg·min/L] | CLR (renal clearance) of AAI [1, 2] [L/h/kg] | CLp (plasma clearance) of AAI [1, 2] [L/h/kg] | Vd of AAI [1, 2] [L/kg] | t1/2β of AAI [1, 2] [h] | Km (hOAT1; hOAT1-HEK293 cells, with or without JBP485, Eadie-Hofstee, n = 3) [µM] | Vmax of AAI uptake (hOAT1; hOAT1-HEK293 cells, with or without JBP485, n = 3) [nmol/mg protein/1min] | Km (hOAT3; hOAT3-HEK293 cells, with or without JBP485, Eadie-Hofstee, n = 3) [µM] | Vmax of AAI uptake (hOAT3; hOAT3-HEK293 cells, with or without JBP485, n = 3) [nmol/mg protein/1min] | concentration at which proliferation of NRK-52E cells is significantly inhibited (as low as) (NRK-52E cells; CCK-8) [nM] | IC50 (NRK-52E cells; CCK-8, read-out: IC50 for NRK-52E cells (cytotoxicity)) [µM]
O=C1N[C@@H](CO)C(=O)N2C[C@H](O)C[C@@H]12 (relative stereo) [JBP485, cyclo-trans-4-L-hydroxyprolyl-L-serine] | reduction | significantly increased | competitive inhibition | 89.8 ± 12.3 | competitive inhibition | 91 ± 10.3 | dose-dependently increased | no JBP485-related toxicity | – | – | – | – | – | – | – | – | – | – | – | –
COc1cccc2c1cc([N+](=O)[O-])c1c(C(=O)O)cc3c(c12)OCO3 [AAI, Aristolochic Acid I] | – | – | – | – | – | – | – | – | 536.2 ± 14.3 | 496.0 ± 14.5 | 74.4 ± 5.4 | 450 ± 12 | 232.9 ± 13.0 | 1.61 ± 0.107 | 15.7 ± 0.4 | 0.141 ± 0.04 | 30.6 ± 1.2 | 0.077 ± 0.03 | 2000 | 11
